Reference: patent US4436751A, “Nitrobenzyl monates antibacterial compounds” (Beecham Group Limited, priority 1980, dated 1984)
Converted amounts (≈) assume the structure as drawn. Read-outs that look alike come from different tables or passages of the source.

How the values were obtained:
Format in all cases: cell-based
[1] = tested on: M. suipneumoniae ATCC 25095; assay: Anti-mycoplasmal MIC in vitro, Friis broth agarose (Table 1); settings: Mesomycoplasma hyopneumoniae, ATCC25095, 144 h
M. hyorhinis ATCC 23234 = assay: as above; settings: Mesomycoplasma hyorhinis, ATCC23234, 144 h
M. suipneumoniae Str. 11 = assay: as above; settings: Mesomycoplasma hyopneumoniae
M. suipneumoniae OCD 1 = assay: as above; settings: Mesomycoplasma hyopneumoniae, OCD1, 144 h
M. suipneumoniae MS 16 = assay: as above; settings: Mesomycoplasma hyopneumoniae, MS16, 144 h
M. suipneumoniae LABER = assay: as above; settings: Mesomycoplasma hyopneumoniae, 144 h
M. suipneumoniae HR(2) = assay: as above; settings: Mesomycoplasma hyopneumoniae, 144 h
M. suipneumoniae JF 435 = assay: as above; settings: Mesomycoplasma hyopneumoniae, JF435, 144 h
M. hyorhinis ATCC 25021 = assay: as above; settings: Mesomycoplasma hyorhinis, ATCC25021, 144 h
M. suipneumoniae NB12 = assay: as above; settings: Mesomycoplasma hyopneumoniae
[2] = tested on: Ps. aeruginosa NCTC 10662; assay: Human bacteria MIC, nutrient agar with chocolated horse blood (Table 3); settings: Pseudomonas aeruginosa, NCTC10662; Ps. aeruginosa NCTC 10662; nutrient agar 5% chocolated horse blood, 18 hours 37° C.; read-out: MIC
Procedure: (§1) The values were determined by serial dilutions in nutrient agar with 5% chocolated horse blood after incubations for 18 hours at 37° C.

Strep. faecalis 1 = assay: as above; settings: Enterococcus faecalis; Strep. faecalis 1; nutrient agar 5% chocolated horse blood, 18 hours 37° C.; read-out: MIC
Procedure: as §1

Staph. aureus Oxford = assay: as above; settings: Staphylococcus aureus; Staph. aureus Oxford; nutrient agar 5% chocolated horse blood, 18 hours 37° C.; read-out: MIC
Procedure: as §1

P. mirabilis 889 = assay: as above; settings: Proteus mirabilis; P. mirabilis 889; nutrient agar 5% chocolated horse blood, 18 hours 37° C.; read-out: MIC
Procedure: as §1

Sarcina lutea 8340 = assay: as above; settings: Micrococcus luteus; Sarcina lutea 8340; nutrient agar 5% chocolated horse blood, 18 hours 37° C.; read-out: MIC
Procedure: as §1

E. Coli NCTC 10418 = assay: as above; settings: Escherichia coli, NCTC10418; E. coli NCTC 10418; nutrient agar 5% chocolated horse blood, 18 hours 37° C.; read-out: MIC
Procedure: as §1

K. aerogenes A = assay: as above; settings: Klebsiella aerogenes; K. aerogenes A; nutrient agar 5% chocolated horse blood, 18 hours 37° C.; read-out: MIC
Procedure: as §1

Staph. aureus Russell = assay: as above; settings: Staphylococcus aureus; Staph. aureus Russell; nutrient agar 5% chocolated horse blood, 18 hours 37° C.; read-out: MIC
Procedure: as §1

Staph. aureus W2827 = assay: as above; settings: Staphylococcus aureus
Procedure: as §1

Bacillus subtilis 6633 = assay: as above
Procedure: as §1

[3] = tested on: Corynebacterium xerosis 9755; assay: as above; settings: Corynebacterium xerosis 9755; nutrient agar 5% chocolated horse blood, 18 hours 37° C.; read-out: MIC
Procedure: as §1

[4] = tested on: Strep. pyogenes R80/421-A; assay: as above; settings: Streptococcus pyogenes
Procedure: as §1

[5] = tested on: Pasteurella multocida 1633; assay: as above; settings: Pasteurella multocida 1633; nutrient agar 5% chocolated horse blood, 18 hours 37° C.; read-out: MIC
Procedure: as §1

[6] = tested on: Haemophilus influenzae Q1; assay: as above
Procedure: as §1

M. gallisepticum S6 = assay: Anti-mycoplasmal MIC in vitro, Friis broth agarose (Table 1); settings: Mycoplasmoides gallisepticum
M. dispar RCTC 10125 = assay: as above; settings: 144 h
[7] = tested on: M. suipneumoniae J2206/183b; assay: as above; settings: Mesomycoplasma hyopneumoniae, 144 h
[8] = tested on: M. hyosynoviae ATOC 25591; assay: as above; settings: 144 h
[9] = M. suipneumoniae HR(2), in vitro, 6 days 37° C., read-out: MIC
[10] = M. suipneumoniae JF 435, in vitro, 6 days 37° C., read-out: MIC
[11] = Staph. aureus W2827, nutrient agar 5% chocolated horse blood, 18 hours 37° C., read-out: MIC
[12] = 144 h, M. gallisepticum S6, in vitro, 6 days 37° C., read-out: MIC
[13] = M. hyosynoviae ATOC 25591, in vitro, 6 days 37° C., read-out: MIC
[14] = Bacillus subtilis 6633, nutrient agar 5% chocolated horse blood, 18 hours 37° C., read-out: MIC
[15] = Strep. pyogenes R80/421-A, nutrient agar 5% chocolated horse blood, 18 hours 37° C., read-out: MIC
[16] = Haemophilus influenzae Q1, nutrient agar 5% chocolated horse blood, 18 hours 37° C., read-out: MIC

C/C(=C\C(=O)OC(C)c1cccc([N+](=O)[O-])c1)CC1OCC(CC2OC2C(C)C(C)O)C(O)C1O (stereo not drawn) [Example 3, 1-(m-nitrophenyl)ethyl monate A]
MIC ([1]; M. suipneumoniae ATCC 25095, in vitro, 6 days 37° C., read-out: MIC): 0.1 µg/mL (≈ 0.203 µM)
MIC (M. hyorhinis ATCC 23234; M. hyorhinis ATCC 23234, in vitro, 6 days 37° C., read-out: MIC): 0.1 µg/mL (≈ 0.203 µM)
MIC (M. suipneumoniae Str. 11; 144 h, M. suipneumoniae Str. 11, in vitro, 6 days 37° C., read-out: MIC): 0.1 µg/mL (≈ 0.203 µM)
MIC (M. suipneumoniae OCD 1; M. suipneumoniae OCD 1, in vitro, 6 days 37° C., read-out: MIC): 0.25 µg/mL (≈ 0.507 µM)
MIC (M. suipneumoniae MS 16; M. suipneumoniae MS 16, in vitro, 6 days 37° C., read-out: MIC): 0.1 µg/mL (≈ 0.203 µM)
MIC (M. suipneumoniae LABER; M. suipneumoniae LABER, in vitro, 6 days 37° C., read-out: MIC): 0.1 µg/mL (≈ 0.203 µM)
MIC (M. suipneumoniae HR(2); [9]): 0.25 µg/mL (≈ 0.507 µM)
MIC (M. suipneumoniae JF 435; [10]): 0.25 µg/mL (≈ 0.507 µM)
MIC (M. hyorhinis ATCC 25021; M. hyorhinis ATCC 25021, in vitro, 6 days 37° C., read-out: MIC): 0.1 µg/mL (≈ 0.203 µM)
MIC (M. suipneumoniae NB12; 144 h, M. suipneumoniae NB12, in vitro, 6 days 37° C., read-out: MIC): 0.25 µg/mL (≈ 0.507 µM)
MIC [2]: > 100 µg/mL
MIC (Strep. faecalis 1): > 100 µg/mL
MIC (Staph. aureus Oxford): 2.5 µg/mL (≈ 5.07 µM)
MIC (P. mirabilis 889): > 100 µg/mL
MIC (Sarcina lutea 8340): > 100 µg/mL
MIC (E. Coli NCTC 10418): > 100 µg/mL
MIC (K. aerogenes A): > 100 µg/mL
MIC (Staph. aureus Russell): 2.5 µg/mL (≈ 5.07 µM)
MIC (Staph. aureus W2827; [11]): 5 µg/mL (≈ 10.1 µM)
MIC (Bacillus subtilis 6633; Bacillus subtilis, 6633, 18 h): 1 µg/mL (≈ 2.03 µM)
MIC [3]: > 100 µg/mL
MIC ([4]; R80/421A, 18 h): 1 µg/mL (≈ 2.03 µM)
MIC [5]: 25 µg/mL (≈ 50.7 µM)
MIC ([6]; Haemophilus influenzae, Q1, 18 h): 1 µg/mL (≈ 2.03 µM)
MIC (M. gallisepticum S6; [12]): > 10 µg/mL
MIC (M. dispar RCTC 10125): 0.05 µg/mL (≈ 0.101 µM)
MIC ([7]; M. suipneumoniae J2206/183b, in vitro, 6 days 37° C., read-out: MIC): 0.25 µg/mL (≈ 0.507 µM)
MIC [8, 13]: 0.25 µg/mL (≈ 0.507 µM)

C/C(=C\C(=O)OC(C)c1ccc([N+](=O)[O-])cc1)CC1OCC(CC2OC2C(C)C(C)O)C(O)C1O (stereo not drawn) [Example 4, 1-(p-nitrophenyl)ethyl monate A]
MIC [1]: 1 µg/mL (≈ 2.03 µM)
MIC (M. hyorhinis ATCC 23234): 0.5 µg/mL (≈ 1.01 µM)
MIC (M. suipneumoniae Str. 11; STR.11, 144 h): 1 µg/mL (≈ 2.03 µM)
MIC (M. suipneumoniae OCD 1): 1 µg/mL (≈ 2.03 µM)
MIC (M. suipneumoniae MS 16): 1 µg/mL (≈ 2.03 µM)
MIC (M. suipneumoniae LABER): 1 µg/mL (≈ 2.03 µM)
MIC (M. suipneumoniae HR(2); [9]): 2.5 µg/mL (≈ 5.07 µM)
MIC (M. suipneumoniae JF 435; [10]): 2.5 µg/mL (≈ 5.07 µM)
MIC (M. hyorhinis ATCC 25021): 0.5 µg/mL (≈ 1.01 µM)
MIC (M. suipneumoniae NB12; NB12, 144 h): 1 µg/mL (≈ 2.03 µM)
MIC [2]: > 100 µg/mL
MIC (Strep. faecalis 1): > 100 µg/mL
MIC (Staph. aureus Oxford): 2.5 µg/mL (≈ 5.07 µM)
MIC (P. mirabilis 889): > 100 µg/mL
MIC (Sarcina lutea 8340): > 100 µg/mL
MIC (E. Coli NCTC 10418): > 100 µg/mL
MIC (K. aerogenes A): > 100 µg/mL
MIC (Staph. aureus Russell): 2.5 µg/mL (≈ 5.07 µM)
MIC (Staph. aureus W2827; [11]): 2.5 µg/mL (≈ 5.07 µM)
MIC (Bacillus subtilis 6633; [14]): 1 µg/mL (≈ 2.03 µM)
MIC [3]: > 100 µg/mL
MIC [4, 15]: 1 µg/mL (≈ 2.03 µM)
MIC [5]: 10 µg/mL (≈ 20.3 µM)
MIC [6, 16]: 1 µg/mL (≈ 2.03 µM)
MIC (M. gallisepticum S6; [12]): > 10 µg/mL
MIC (M. dispar RCTC 10125; M. dispar RCTC 10125, in vitro, 6 days 37° C., read-out: MIC): 0.1 µg/mL (≈ 0.203 µM)
MIC ([7]; J2206/183B): 1 µg/mL (≈ 2.03 µM)
MIC [8, 13]: 0.1 µg/mL (≈ 0.203 µM)

C/C(=C\C(=O)OCc1cccc([N+](=O)[O-])c1)CC1OCC(C/C=C/C(C)C(C)O)C(O)C1O (stereo not drawn) [Example 5, m-nitrobenzyl monate C]
MIC [1]: 0.25 µg/mL (≈ 0.539 µM)
MIC (M. hyorhinis ATCC 23234): 0.25 µg/mL (≈ 0.539 µM)
MIC (M. suipneumoniae Str. 11; STR.11, 144 h): 0.1 µg/mL (≈ 0.216 µM)
MIC (M. suipneumoniae OCD 1): 0.25 µg/mL (≈ 0.539 µM)
MIC (M. suipneumoniae MS 16): 0.1 µg/mL (≈ 0.216 µM)
MIC (M. suipneumoniae LABER): 0.1 µg/mL (≈ 0.216 µM)
MIC (M. suipneumoniae HR(2)): 0.25 µg/mL (≈ 0.539 µM)
MIC (M. suipneumoniae JF 435): 0.25 µg/mL (≈ 0.539 µM)
MIC (M. hyorhinis ATCC 25021): 0.25 µg/mL (≈ 0.539 µM)
MIC (M. suipneumoniae NB12; NB12, 144 h): 0.25 µg/mL (≈ 0.539 µM)
MIC [2]: > 100 µg/mL
MIC (Strep. faecalis 1): > 100 µg/mL
MIC (Staph. aureus Oxford): 2.5 µg/mL (≈ 5.39 µM)
MIC (P. mirabilis 889): > 100 µg/mL
MIC (Sarcina lutea 8340): > 100 µg/mL
MIC (E. Coli NCTC 10418): > 100 µg/mL
MIC (K. aerogenes A): > 100 µg/mL
MIC (Staph. aureus Russell): 2.5 µg/mL (≈ 5.39 µM)
MIC (Staph. aureus W2827; W2827, 18 h): 5 µg/mL (≈ 10.8 µM)
MIC (Bacillus subtilis 6633; [14]): 1 µg/mL (≈ 2.16 µM)
MIC [3]: > 100 µg/mL
MIC [4, 15]: 1 µg/mL (≈ 2.16 µM)
MIC [5]: 25 µg/mL (≈ 53.9 µM)
MIC [6, 16]: 1 µg/mL (≈ 2.16 µM)
MIC (M. gallisepticum S6; S6, 144 h): 5 µg/mL (≈ 10.8 µM)
MIC (M. dispar RCTC 10125): 0.1 µg/mL (≈ 0.216 µM)
MIC ([7]; J2206/183B): 0.25 µg/mL (≈ 0.539 µM)
MIC [8]: 0.25 µg/mL (≈ 0.539 µM)
